Results from publication PMC10447463, “Data-mining unveils structure–property–activity correlation of viral infectivity enhancing self-assembling peptides” (Nature Communications, 2023).
Read-outs that look alike come from different tables or passages of the source.

Tests used:
[1] = Turbidity, derived count rate of scattered light; type: physicochemical; details: for Log Count Rate: log of derived count rate
Procedure, shortened: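 One-day room-temperature aggregation at 1 mg/mL in PBS (pH 7.4) preceded measurement; samples then went into 1 mM KCl. Triplicates per sample, two independent experiments averaged.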

[2] = Zeta-potential measurement; type: physicochemical; details: for Zeta-pot. / mV: zeta potential of peptide, Fig S15 source data
Procedure, shortened: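 Charge on peptide aggregates was assessed by electrophoretic mobility in 1 mM KCl, converted per Smoluchowski. Prior aggregation: 1 mg/mL, pH 7.4 PBS, 1 d, RT.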

TZM-bl cells = type: cell-based; details: CellTiter-Glo, mean of n = 3 replicates; for viability 0.26 µM: peptide 0.26 µM; for viability 1.3 µM: peptide 1.3 µM; for viability 6.5 µM: peptide 6.5 µM
Procedure, shortened: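 CellTiter-Glo luminescence, normalized to 100% metabolic activity, gave cytotoxicity readout for TZM-bl cells exposed to peptide serial dilutions for 3 days; 10,000 cells seeded, triplicate measurements.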

[3] = category 1 or 0 derived from the count rate, key not given
[4] = derived count rate of scattered light
[5] = derived count rate of scattered light, mean, std deviation in next column
[6] = derived count rate of scattered light, mean, std deviation in separate column
[7] = category derived from the zeta potential
[8] = category 1 or 0 from count rate, key not given

Q: With KFKFQFW [TM71] as the substance, how does the “Zeta Count Rate Category” value ([1]; category 1 / 0, no key given) read?
A: The value was 1.

Q: And the “Zeta Count Rate Category” value [1, 3]?
A: The value was 1.

Q: What about the “Zeta Count Rate / kcps” value [1, 4] of the same substance?
A: Its value is 121.9 kcps.

Q: What about the “Zeta Count Rate / kcps” value [1, 5] of the same substance?
A: Its value is 121.9 kcps.

Q: What about the “Zeta Count Rate / kcps” value [1, 6] of the same substance?
A: Its value is 121.9 kcps.

Q: What about the “Zeta Pot. / mV” value [2] of the same substance?
A: Its value is 6.49 mV.

Q: What about the “Zeta category ( +1 = if > 4 mV;-1 = if < -4 mV; 0 = -4mV to 4 mV)” value (“Zeta category” for short) [2] of the same substance?
A: The value was 1 (+1 = if > 4 mV).

Q: And the “Zeta category” value [2, 7]?
A: The value was 1 (+1 = if > 4 mV).

Q: What about the “Zeta Pot. / mV” value ([2]; mean, Std Zeta in next column) of the same substance?
A: The value was 6.49 mV.

Q: What about the “Zeta Pot. / mV” value ([2]; mean, Std in separate column) of the same substance?
A: The value was 6.49 mV.

Q: And the “Zeta-pot. / mV” value [2]?
A: Its value is 6.49 mV.

Q: And the “viability 0.26 µM” value (TZM-bl cells)?
A: Its value is 107.5.

Q: What about the “viability 1.3 µM” value (TZM-bl cells) of the same substance?
A: The value was 104.2.

Q: And the “viability 6.5 µM” value (TZM-bl cells)?
A: The value was 102.2.

Q: What does the source list for CKFKQFFNMWQ [CK13]?
A: Zeta Count Rate Category ([1]; category 1 / 0, no key given): 1; Zeta Count Rate Category [1, 8]: 1; Zeta Count Rate / kcps [1, 4]: 8210 kcps; Zeta Count Rate / kcps [1, 5]: 8210 kcps; Zeta Count Rate / kcps [1, 6]: 8210 kcps; Zeta Pot. / mV [2]: 8.563 mV; Zeta category ( +1 = if > 4 mV;-1 = if < -4 mV; 0 = -4mV to 4 mV) [2]: 1 (+1 = if > 4 mV); Zeta category ( +1 = if > 4 mV;-1 = if < -4 mV; 0 = -4mV to 4 mV) ([2]; category from zeta potential): 1 (+1 = if > 4 mV); Zeta Pot. / mV ([2]; mean, Std Zeta in next column): 8.563 mV; Zeta Pot. / mV ([2]; mean, Std in separate column): 8.563 mV; Zeta-pot. / mV [2]: 8.563 mV; viability 0.26 µM (TZM-bl cells): 122.3; viability 1.3 µM (TZM-bl cells): 108; viability 6.5 µM (TZM-bl cells): 88.49

Q: With CKFKFQFW [TM72] as the substance, how does the “Log Count Rate” value ([1]; Fig S8 panels A, C, asymmetric log errors) read?
A: Its value is 4.466.

Q: And the “Log Count Rate” value ([1]; Fig S8 panels B, D)?
A: The value was 4.466.

Q: What about the “Count Rate” value ([1]; Fig S8 panels B, D, turbidity, derived count rate of scattered light) of the same substance?
A: Its value is 29210.5.

Q: What about the “Zeta Count Rate Category” value [1, 3] of the same substance?
A: The value was 1.

Q: What about the “Zeta Count Rate / kcps” value [1, 5] of the same substance?
A: The value was 29210.5 kcps.

Q: And the “Zeta category” value [2, 7]?
A: The value was 1 (+1 = if > 4 mV).

Q: And the “Zeta Pot. / mV” value ([2]; mean, Std Zeta in next column)?
A: Its value is 15.2 mV.

Q: And the “Zeta-pot. / mV” value [2]?
A: The value was 15.2 mV.

Q: What about the “viability 0.26 µM” value (TZM-bl cells) of the same substance?
A: Its value is 91.88.

Q: What about the “viability 1.3 µM” value (TZM-bl cells) of the same substance?
A: Its value is 85.39.

Q: And the “viability 6.5 µM” value (TZM-bl cells)?
A: The value was 82.4.

Q: What does the source list for KIKIKIKIYYYY [JR7]?
A: Zeta Count Rate Category [1, 3]: 1; Zeta Count Rate / kcps [1, 5]: 9918 kcps; Zeta category ( +1 = if > 4 mV;-1 = if < -4 mV; 0 = -4mV to 4 mV) [2, 7]: 1 (+1 = if > 4 mV); Zeta Pot. / mV ([2]; mean, Std Zeta in next column): 13.3 mV; Zeta-pot. / mV [2]: 13.3 mV; viability 0.26 µM (TZM-bl cells): 98.76; viability 1.3 µM (TZM-bl cells): 92.93; viability 6.5 µM (TZM-bl cells): 78.89

Q: For RGDCKFKFQF [TM64/ CN15], which “Zeta Count Rate Category” value ([1]; category 1 / 0, no key given) is on record?
A: Its value is 1.

Q: What about the “Zeta Count Rate Category” value [1, 8] of the same substance?
A: The value was 1.

Q: What about the “Zeta Count Rate / kcps” value [1, 4] of the same substance?
A: Its value is 1338 kcps.

Q: And the “Zeta Count Rate / kcps” value [1, 5]?
A: The value was 1338 kcps.

Q: And the “Zeta Pot. / mV” value [2]?
A: Its value is 13.87 mV.

Q: What about the “Zeta category” value [2] of the same substance?
A: Its value is 1 (+1 = if > 4 mV).

Q: And the “Zeta category” value ([2]; category from zeta potential)?
A: Its value is 1 (+1 = if > 4 mV).

Q: What about the “Zeta Pot. / mV” value ([2]; mean, Std Zeta in next column) of the same substance?
A: Its value is 13.87 mV.

Q: And the “Zeta-pot. / mV” value [2]?
A: The value was 13.87 mV.

Q: What about the “viability 0.26 µM” value (TZM-bl cells) of the same substance?
A: The value was 108.7.

Q: And the “viability 1.3 µM” value (TZM-bl cells)?
A: Its value is 107.1.

Q: What about the “viability 6.5 µM” value (TZM-bl cells) of the same substance?
A: Its value is 101.

Q: With QCKIKIQINM [CK2] as the substance, how does the “Zeta Count Rate Category” value ([1]; category 1/0, no key printed) read?
A: Its value is 1.

Q: And the “Zeta Count Rate Category” value [1, 8]?
A: The value was 1.

Q: And the “Zeta Count Rate / kcps” value [1, 5]?
A: Its value is 9524 kcps.

Q: And the “Zeta Count Rate / kcps” value [1, 6]?
A: The value was 9524 kcps.

Q: And the “Zeta category” value [2]?
A: The value was 1 (+1 = if > 4 mV).

Q: What about the “Zeta category” value ([2]; category from zeta potential) of the same substance?
A: The value was 1 (+1 = if > 4 mV).

Q: And the “Zeta Pot. / mV” value ([2]; mean, Std Zeta in next column)?
A: Its value is 11.37 mV.

Q: And the “Zeta Pot. / mV” value ([2]; mean, Std in separate column)?
A: Its value is 11.37 mV.

Q: What about the “Zeta-pot. / mV” value [2] of the same substance?
A: The value was 11.37 mV.

Q: What about the “viability 0.26 µM” value (TZM-bl cells) of the same substance?
A: Its value is 114.5.

Q: And the “viability 1.3 µM” value (TZM-bl cells)?
A: Its value is 100.8.

Q: What about the “viability 6.5 µM” value (TZM-bl cells) of the same substance?
A: Its value is 83.71.

Q: What does the source list for QCKFKFQF [CK9]?
A: Zeta Count Rate Category ([1]; category 1/0, no key printed): 1; Zeta Count Rate Category [1, 8]: 1; Zeta Count Rate / kcps [1, 5]: 2669 kcps; Zeta Count Rate / kcps [1, 6]: 2669 kcps; Zeta category ( +1 = if > 4 mV;-1 = if < -4 mV; 0 = -4mV to 4 mV) [2]: 1 (+1 = if > 4 mV); Zeta category ( +1 = if > 4 mV;-1 = if < -4 mV; 0 = -4mV to 4 mV) ([2]; category from zeta potential): 1 (+1 = if > 4 mV); Zeta Pot. / mV ([2]; mean, Std Zeta in next column): 12.2 mV; Zeta Pot. / mV ([2]; mean, Std in separate column): 12.2 mV; Zeta-pot. / mV [2]: 12.2 mV; viability 0.26 µM (TZM-bl cells): 104.7; viability 1.3 µM (TZM-bl cells): 139.5; viability 6.5 µM (TZM-bl cells): 96.02

Q: For KAKAKAQA [TG15], which “Zeta Count Rate Category” value ([1]; category 1 / 0, no key given) is on record?
A: The value was 0.

Q: And the “Zeta Count Rate Category” value [1, 8]?
A: The value was 0.

Q: What about the “Zeta Count Rate / kcps” value [1, 4] of the same substance?
A: Its value is 76.93 kcps.

Q: And the “Zeta Count Rate / kcps” value [1, 5]?
A: Its value is 76.93 kcps.

Q: And the “Zeta Pot. / mV” value [2]?
A: The value was -9.01 mV.

Q: What about the “Zeta category” value [2] of the same substance?
A: The value was -1 (-1 = if < -4 mV).

Q: And the “Zeta category” value ([2]; category from zeta potential)?
A: Its value is -1 (-1 = if < -4 mV).

Q: And the “Zeta Pot. / mV” value ([2]; mean, Std Zeta in next column)?
A: The value was -9.01 mV.

Q: And the “Zeta-pot. / mV” value [2]?
A: The value was -9.01 mV.
